Values quoted from earlier work, collected in patent publication US20120135069A1, “NANONIZED TESTOSTERON FORMULATIONS FOR IMPROVED BIOAVAILABILITY” (PHARMASOL GMBH, priority 2009, published 2012).

Columns and labels:
[1] = taken orally
[2] = in vivo

Row | Structure (SMILES) | fraction of the drug immediately metabolised by liver enzymes (first pass effect) [1] | liver toxicity [2]
1 | C[C@]12CC[C@H]3[C@@H](CCC4=CC(=O)CC[C@@]43C)[C@@H]1CC[C@@H]2O [testosterone] | about 99% | 
2 | C[C@]12CCC(=O)C=C1CC[C@@H]1[C@@H]2CC[C@@]2(C)[C@H]1CC[C@]2(C)O [methyltestosterone] |  | very liver toxic
